Experimental data: patent US8975398B2, “NAMPT inhibitors” (AbbVie Inc., priority 2012, dated 2015)

Columns and labels:
[1] = target: NAMPT (human, recombinant, C-terminally His-tagged) (Homo sapiens, UniProt P43490); test: Time-Resolved Fluorescence Resonance Energy Transfer (TR-FRET) Binding Assay of NAMPT; settings: 6.8 nM NAMPT, 200 nM probe, equilibrated 3 hours, absence of substrates
Protocol: Determination of the utility of compounds having Formula (I) as binders to and inhibitors of NAMPT was performed using Time-Resolved Fluorescence Resonance Energy Transfer (TR-FRET) binding assays.
Time-Resolved Fluorescence Resonance Energy Transfer (TR-FRET) Binding Assay of NAMPT
Test compounds were serially diluted (typically 11 half log dilutions) in neat DMSO to 50× final concentrations prior to dilution with assay buffer (50 mM HEPES (NaOH), pH 7.5, 100 mM NaCl, 10 mM MgCl2, 1 mM DTT, 1% Glycerol) to 3× and 6% DMSO. Six μL were transferred to 384-well low-volume plates (Owens Corning #3673). To this, 12 μL of a 1.5× solution containing enzyme, probe and antibody were added. Final concentrations in the 18 μL, reactions were 1× assay buffer, 2% DMSO, 6.8 nM NAMPT (human, recombinant, C-terminally His-tagged), 200 nM probe (a potent nicotinamide-competitive inhibitor conjugated to Oregon Green 488) and 1 nM Tb-anti-His antibody (Invitrogen #PV5895). Reactions were equilibrated at room temperature for 3 hours prior to reading on an Envision multi-label plate reader (Perkin Elmer; Ex=337 nm, Em=520 and 495 nm). Time-resolved FRET ratios (Em520/Em495) were normalized to controls, plotted as a function of compound concentration and fit with the four-parameter logistic equation to determine IC50s.

[2] = target: NAMPT (Homo sapiens, UniProt P43490); test: Time-Resolved Fluorescence Resonance Energy Transfer (TR-FRET) Binding Assay of NAMPT with PRPP; settings: 2 nM NAMPT, 2 nM probe, 200 uM PRPP and 2.5 mM ATP, equilibrated 16 hours
Sequence of NAMPT (P43490 whole entry): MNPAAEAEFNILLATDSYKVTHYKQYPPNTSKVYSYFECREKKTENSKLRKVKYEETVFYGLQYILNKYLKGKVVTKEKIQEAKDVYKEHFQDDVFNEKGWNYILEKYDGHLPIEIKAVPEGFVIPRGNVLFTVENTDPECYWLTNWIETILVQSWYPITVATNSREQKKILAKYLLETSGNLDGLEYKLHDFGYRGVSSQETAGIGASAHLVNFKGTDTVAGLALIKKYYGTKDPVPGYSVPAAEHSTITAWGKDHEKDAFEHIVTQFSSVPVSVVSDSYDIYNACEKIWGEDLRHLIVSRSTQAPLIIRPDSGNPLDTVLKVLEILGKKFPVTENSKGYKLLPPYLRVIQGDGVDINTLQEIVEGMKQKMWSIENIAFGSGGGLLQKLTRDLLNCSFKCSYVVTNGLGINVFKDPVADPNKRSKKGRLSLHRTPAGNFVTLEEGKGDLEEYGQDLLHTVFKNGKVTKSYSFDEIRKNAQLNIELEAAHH
Protocol: Time-Resolved Fluorescence Resonance Energy Transfer (TR-FRET) Binding Assay of NAMPT with PRPP
Compound handling and data processing were identical to the assay in the absence of substrates (above). Final concentrations were 1× assay buffer, 2% DMSO, 2 nM NAMPT, 2 nM probe, 1 nM Tb-anti-His antibody (Invitrogen #PV5895), 200 uM PRPP and 2.5 mM ATP. Reactions were equilibrated for 16 hours prior to measurement to allow for potential enzymatic modification of test compounds.

Sequence of NAMPT (human, recombinant, C-terminally His-tagged) (P43490 whole entry): as above

Compound | IC50 [1] | IC50 [2]
O=C(Nc1ccc(OC2CCN(C(=O)CC3CCOCC3)CC2)cc1)C1CN(c2cccnc2)C1 [Example 1, 1-(pyridin-3-yl)-N-(4-{[1-(tetrahydro-2H-pyran-4-ylacetyl)piperidin-4-yl]oxy}phenyl)azetidine-3-carboxamide] | 120 nM | 0.386 nM
CCOCC(=O)N1CCC(Oc2ccc(NC(=O)C3CN(c4cccnc4)C3)cc2)CC1 [Example 44, N-(4-{[1-(ethoxyacetyl)piperidin-4-yl]oxy}phenyl)-1-(pyridin-3-yl)azetidine-3-carboxamide] | 138 nM | 1.01 nM
O=C(Nc1ccc(OC2CCN(CCC3CC3)CC2)cc1)C1CN(c2cccnc2)C1 [Example 82, N-(4-{[1-(2-cyclopropylethyl)piperidin-4-yl]oxy}phenyl)-1-(pyridin-3-yl)azetidine-3-carboxamide] | 955 nM | 0.526 nM
CC(=O)N[C@@H](CC(C)C)C(=O)N1CCC(c2ccc(NC(=O)C3CN(c4cccnc4)C3)cc2)CC1 [Example 120, N-{4-[1-(N-acetyl-L-leucyl)piperidin-4-yl]phenyl}-1-(pyridin-3-yl)azetidine-3-carboxamide] | 11.6 nM | 0.294 nM
CC(C)Cn1cc(-c2ccc(C(=O)NC3CN(c4cccnn4)C3)s2)cn1 [Example 315, 5-[1-(2-methylpropyl)-1H-pyrazol-4-yl]-N-[1-(pyridazin-3-yl)azetidin-3-yl]thiophene-2-carboxamide] | 469 nM | 0.641 nM
CC[C@H](C)C(=O)N1CCC(Oc2ccc(NC(=O)C3CN(c4cccnn4)C3)cc2)CC1 [Example 212, N-[4-({1-[(2S)-2-methylbutanoyl]piperidin-4-yl}oxy)phenyl]-1-(pyridazin-3-yl)azetidine-3-carboxamide] | 70.4 nM | 0.787 nM
O=C(Nc1ccc(OC2CCN(C(=O)Cc3ccc(OC(F)(F)F)cc3)CC2)cc1)C1CN(c2ccnnc2)C1 [Example 275, 1-(pyridazin-4-yl)-N-{4-[(1-{[4-(trifluoromethoxy)phenyl]acetyl}piperidin-4-yl)oxy]phenyl}azetidine-3-carboxamide] | 231 nM | 45.1 nM
Cc1ncccc1N1CC(C(=O)Nc2ccc(OC3CCN(C(=O)CC4CCOCC4)CC3)cc2)C1 [Example 4, 1-(2-methylpyridin-3-yl)-N-(4-{[1-(tetrahydro-2H-pyran-4-ylacetyl)piperidin-4-yl]oxy}phenyl)azetidine-3-carboxamide] | 424 nM | 24 nM
O=C(Nc1ccc(OC2CCN(C(=O)CC3CCCCC3)CC2)cc1)C1CN(c2cccnc2)C1 [Example 50, N-(4-{[1-(cyclohexylacetyl)piperidin-4-yl]oxy}phenyl)-1-(pyridin-3-yl)azetidine-3-carboxamide] | 63.5 nM | 1.1 nM
O=C(Nc1ccc(OC2CN(C(=O)C3CCCO3)C2)cc1)C1CN(c2ccnnc2)C1 (stereo not drawn) [Example 262, 1-(pyridazin-4-yl)-N-(4-{[1-(tetrahydrofuran-2-ylcarbonyl)azetidin-3-yl]oxy}phenyl)azetidine-3-carboxamide] | 130 nM | 34.3 nM
CC1(C(=O)N2CCC(c3ccc(NC(=O)C4CN(c5cccnn5)C4)cc3)CC2)CC1 [Example 379, N-(4-{1-[(1-methylcyclopropyl)carbonyl]piperidin-4-yl}phenyl)-1-(pyridazin-3-yl)azetidine-3-carboxamide] | 15.9 nM | 0.432 nM
CCCCC(=O)N1CCC(c2ccc(NC(=O)C3CN(c4cccnc4C)C3)cc2)CC1 [Example 159, 1-(2-methylpyridin-3-yl)-N-[4-(1-pentanoylpiperidin-4-yl)phenyl]azetidine-3-carboxamide] | 137 nM | 61.2 nM
CC(=O)N[C@@H](CC(C)C)C(=O)N1CCC(Oc2ccc(NC(=O)C3CN(c4cccnc4)C3)cc2)CC1 [Example 47, N-(4-{[1-(N-acetyl-L-leucyl)piperidin-4-yl]oxy}phenyl)-1-(pyridin-3-yl)azetidine-3-carboxamide] | 80.5 nM | 1.78 nM
O=C(Nc1ccc(OC2CCN(C(=O)c3ccc(F)cc3)CC2)cc1)C1CN(c2cccnn2)C1 [Example 230, N-(4-{[1-(4-fluorobenzoyl)piperidin-4-yl]oxy}phenyl)-1-(pyridazin-3-yl)azetidine-3-carboxamide] | 158 nM | 0.843 nM
O=C(Nc1ccc(C2CCN(C(=O)CC(F)(F)F)CC2)cc1)C1CN(c2cccnn2)C1 [Example 332, 1-(pyridazin-3-yl)-N-{4-[1-(3,3,3-trifluoropropanoyl)piperidin-4-yl]phenyl}azetidine-3-carboxamide] | 21.9 nM | 0.699 nM
O=C(Nc1ccc(OC2CCN(C(=O)c3ccc(C(F)(F)F)cc3)CC2)cc1)C1CN(c2cccnn2)C1 [Example 237, 1-(pyridazin-3-yl)-N-[4-({1-[4-(trifluoromethyl)benzoyl]piperidin-4-yl}oxy)phenyl]azetidine-3-carboxamide] | 240 nM | 1.27 nM
O=C(Nc1ccc(C2CCN(C(=O)c3ccc(Cl)c(Cl)c3)CC2)cc1)C1CN(c2cccnn2)C1 [Example 364, N-{4-[1-(3,4-dichlorobenzoyl)piperidin-4-yl]phenyl}-1-(pyridazin-3-yl)azetidine-3-carboxamide] | 36.9 nM | 0.334 nM
O=C(Nc1ccc(OC2CCN(C(=O)Cc3cc(F)cc(F)c3)CC2)cc1)C1CN(c2ccnnc2)C1 [Example 291, N-[4-({1-[(3,5-difluorophenyl)acetyl]piperidin-4-yl}oxy)phenyl]-1-(pyridazin-4-yl)azetidine-3-carboxamide] | 45.6 nM | 18.2 nM
O=C(Nc1ccc(OC2CCN(C(=O)c3ccsc3)CC2)cc1)C1CN(c2cccnn2)C1 [Example 223, 1-(pyridazin-3-yl)-N-(4-{[1-(thiophen-3-ylcarbonyl)piperidin-4-yl]oxy}phenyl)azetidine-3-carboxamide] | 150 nM | 0.959 nM
CC(C)(O)C(=O)N1CCC(c2ccc(NC(=O)C3CN(c4cnccc4C#N)C3)cc2)CC1 [Example 97, 1-(4-cyanopyridin-3-yl)-N-{4-[1-(2-hydroxy-2-methylpropanoyl)piperidin-4-yl]phenyl}azetidine-3-carboxamide] | 36.6 nM | 131 nM
O=C(Nc1ccc(C2CCN(C(=O)c3cc(Cl)cc(Cl)c3)CC2)cc1)C1CN(c2cccnn2)C1 [Example 365, N-{4-[1-(3,5-dichlorobenzoyl)piperidin-4-yl]phenyl}-1-(pyridazin-3-yl)azetidine-3-carboxamide] | 50.1 nM | 1.05 nM
O=C(Nc1ccc(C2CCN(C(=O)Cc3cc(F)ccc3F)CC2)cc1)C1CN(c2cccnn2)C1 [Example 373, N-(4-{1-[(2,5-difluorophenyl)acetyl]piperidin-4-yl}phenyl)-1-(pyridazin-3-yl)azetidine-3-carboxamide] | 22.4 nM | 0.576 nM
CC(C)(C)OC(=O)N1CCC(Oc2ccc(NC(=O)[C@@H]3CCN(c4cccnc4)C3)cc2)CC1 [Example 9, tert-butyl 4-[4-({[(3R)-1-(pyridin-3-yl)pyrrolidin-3-yl]carbonyl}amino)phenoxy]piperidine-1-carboxylate] | 8620 nM | 17.2 nM
O=C(Nc1ccc(OC2CCN(C(=O)c3ccsc3)CC2)cc1)C1CN(c2ccnnc2)C1 [Example 278, 1-(pyridazin-4-yl)-N-(4-{[1-(thiophen-3-ylcarbonyl)piperidin-4-yl]oxy}phenyl)azetidine-3-carboxamide] | 75.8 nM | 33.4 nM
O=C(Nc1ccc(C2CCN(C(=O)c3ccccc3Cl)CC2)cc1)C1CN(c2cccnn2)C1 [Example 350, N-{4-[1-(2-chlorobenzoyl)piperidin-4-yl]phenyl}-1-(pyridazin-3-yl)azetidine-3-carboxamide] | 4.62 nM | 0.642 nM
O=C(Nc1ccc(OC2CCN(C(=O)C3CCOC3)CC2)cc1)C1CN(c2cccnn2)C1 (stereo not drawn) [Example 226, 1-(pyridazin-3-yl)-N-(4-{[1-(tetrahydrofuran-3-ylcarbonyl)piperidin-4-yl]oxy}phenyl)azetidine-3-carboxamide] | 242 nM | 0.896 nM
CC(C)(C)OC(=O)N1CCC(Oc2ccc(C(=O)N[C@H]3CCN(c4cccnc4)C3)cc2)CC1 [Example 27, tert-butyl 4-(4-{[(3S)-1-(pyridin-3-yl)pyrrolidin-3-yl]carbamoyl}phenoxy)piperidine-1-carboxylate] | – | 11.2 nM
CC(C)(C)OC(=O)N1CCC(Oc2ccc(C(=O)N[C@@H]3CCN(c4cccnc4)C3)cc2)CC1 [Example 28, tert-butyl 4-(4-{[(3R)-1-(pyridin-3-yl)pyrrolidin-3-yl]carbamoyl}phenoxy)piperidine-1-carboxylate] | – | 2.51 nM
